Data published in patent US20230093099A1, “COMPOUNDS AND METHODS OF TREATING CANCERS” (CULLGEN (SHANGHAI), INC., priority 2019, published 2023).

system: RS4;11 cells; assay: Cell viability assay (CellTiter-Glo) in RS4;11 cells; type: cell-based; conditions: Homo sapiens, 72 h; RS4;11 cells; cell viability, 3 days, CellTiter-Glo; read-out: IC50
Procedure, shortened: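 RS4;11 cells seeded at 5000 per well, exposed for 3 days to 8- or 12-point 3-fold serial dilutions. Viability read by CellTiter-Glo luminescence; IC50 fitted by nonlinear least-squares regression.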

| SMILES | IC50 |
| --- | --- |
| Cc1ncsc1-c1ccc(CNC(=O)[C@@H]2C[C@@H](O)CN2C(=O)[C@@H](NC(=O)CCCCCCCC(=O)N2CCN(c3ccc(Nc4nc5cccc(-c6ccc(S(C)(=O)=O)cc6)n5n4)cc3)CC2)C(C)(C)C)cc1 [JA-065, (2S,4R)-1-((S)-3,3-Dimethyl-2-(9-(4-(4-((5-(4-(methylsulfonyl)phenyl)-[1,2,4]triazolo[1,5-a]pyridin-2-yl)amino)phenyl)piperazin-1-yl)-9-oxononanamido)butanoyl)-4-hydroxy-N-(4-(4-methylthiazol-5-yl)benzyl)pyrrolidine-2-carboxamide] | 872 nM |
| Cc1ncsc1-c1ccc(CNC(=O)[C@@H]2C[C@@H](O)CN2C(=O)[C@@H](NC(=O)CCCC(=O)N2CCN(c3ccc(Nc4nc5cccc(-c6ccc(S(C)(=O)=O)cc6)n5n4)cc3)CC2)C(C)(C)C)cc1 [JA-066, (2S,4R)-1-((S)-3,3-Dimethyl-2-(5-(4-(4-((5-(4-(methylsulfonyl)phenyl)-[1,2,4]triazolo[1,5-a]pyridin-2-yl)amino)phenyl)piperazin-1-yl)-5-oxopentanamido)butanoyl)-4-hydroxy-N-(4-(4-methylthiazol-5-yl)benzyl)pyrrolidine-2-carboxamide] | > 10000 nM |
| Cc1ncsc1-c1ccc(CNC(=O)[C@@H]2C[C@@H](O)CN2C(=O)[C@@H](NC(=O)CCCCCCCCC(=O)N2CCN(c3ccc(Nc4nc5cccc(-c6ccc(S(C)(=O)=O)cc6)n5n4)cc3)CC2)C(C)(C)C)cc1 [JA-067, (2S,4R)-1-((S)-3,3-Dimethyl-2-(10-(4-(4-((5-(4-(methylsulfonyl)phenyl)-[1,2,4]triazolo[1,5-a]pyridin-2-yl)amino)phenyl)piperazin-1-yl)-10-oxodecanamido)butanoyl)-4-hydroxy-N-(4-(4-methylthiazol-5-yl)benzyl)pyrrolidine-2-carboxamide] | 3860 nM |
| Cc1ncsc1-c1ccc(CNC(=O)[C@@H]2C[C@@H](O)CN2C(=O)[C@@H](NC(=O)CCC(=O)N2CCN(c3ccc(Nc4nc5cccc(-c6ccc(S(C)(=O)=O)cc6)n5n4)cc3)CC2)C(C)(C)C)cc1 [JA-069, (2S,4R)-1-((S)-3,3-Dimethyl-2-(4-(4-(4-((5-(4-(methylsulfonyl)phenyl)-[1,2,4]triazolo[1,5-a]pyridin-2-yl)amino)phenyl)piperazin-1-yl)-4-oxobutanamido)butanoyl)-4-hydroxy-N-(4-(4-methylthiazol-5-yl)benzyl)pyrrolidine-2-carboxamide] | > 10000 nM |
| Cc1ncsc1-c1ccc(CNC(=O)[C@@H]2C[C@@H](O)CN2C(=O)[C@@H](NC(=O)COCC(=O)N2CCN(c3ccc(Nc4nc5cccc(-c6ccc(S(C)(=O)=O)cc6)n5n4)cc3)CC2)C(C)(C)C)cc1 [JA-072, (2S,4R)-1-((S)-3,3-Dimethyl-2-(2-(2-(4-(4-((5-(4-(methylsulfonyl)phenyl)-[1,2,4]triazolo[1,5-a]pyridin-2-yl)amino)phenyl)piperazin-1-yl)-2-oxoethoxy)acetamido)butanoyl)-4-hydroxy-N-(4-(4-methylthiazol-5-yl)benzyl)pyrrolidine-2-carboxamide] | 6460 nM |
| Cc1ncsc1-c1ccc(CNC(=O)[C@@H]2C[C@@H](O)CN2C(=O)[C@@H](NC(=O)COCCOCC(=O)N2CCN(c3ccc(Nc4nc5cccc(-c6ccc(S(C)(=O)=O)cc6)n5n4)cc3)CC2)C(C)(C)C)cc1 [JA-073, (2S,4R)-1-((S)-3,3-Dimethyl-2-(2-(2-(2-(4-(4-((5-(4-(methylsulfonyl)phenyl)-[1,2,4]triazolo[1,5-a]pyridin-2-yl)amino)phenyl)piperazin-1-yl)-2-oxoethoxy)ethoxy)acetamido)butanoyl)-4-hydroxy-N-(4-(4-methylthiazol-5-yl)benzyl)pyrrolidine-2-carboxamide] | 4590 nM |
| Cc1ncsc1-c1ccc(CNC(=O)[C@@H]2C[C@@H](O)CN2C(=O)[C@@H](NC(=O)CCCCC(=O)N2CCN(c3ccc(Nc4nc5cccc(-c6ccc(S(C)(=O)=O)cc6)n5n4)cc3)CC2)C(C)(C)C)cc1 [JA-074, (2S,4R)-1-((S)-3,3-Dimethyl-2-(6-(4-(4-((5-(4-(methylsulfonyl)phenyl)-[1,2,4]triazolo[1,5-a]pyridin-2-yl)amino)phenyl)piperazin-1-yl)-6-oxohexanamido)butanoyl)-4-hydroxy-N-(4-(4-methylthiazol-5-yl)benzyl)pyrrolidine-2-carboxamide] | > 10000 nM |
| Cc1ncsc1-c1ccc(CNC(=O)[C@@H]2C[C@@H](O)CN2C(=O)[C@@H](NC(=O)CCCCCC(=O)N2CCN(c3ccc(Nc4nc5cccc(-c6ccc(S(C)(=O)=O)cc6)n5n4)cc3)CC2)C(C)(C)C)cc1 [JA-076, (2S,4R)-1-((S)-3,3-Dimethyl-2-(7-(4-(4-((5-(4-(methylsulfonyl)phenyl)-[1,2,4]triazolo[1,5-a]pyridin-2-yl)amino)phenyl)piperazin-1-yl)-7-oxoheptanamido)butanoyl)-4-hydroxy-N-(4-(4-methylthiazol-5-yl)benzyl)pyrrolidine-2-carboxamide] | > 10000 nM |

Results, then the molecule that gave them:

| IC50 | SMILES |
| --- | --- |
| > 10000 nM | Cc1ncsc1-c1ccc(CNC(=O)[C@@H]2C[C@@H](O)CN2C(=O)[C@@H](NC(=O)COCCOCCOCC(=O)N2CCN(c3ccc(Nc4nc5cccc(-c6ccc(S(C)(=O)=O)cc6)n5n4)cc3)CC2)C(C)(C)C)cc1 [JA-064, (2S,4R)-1-((S)-2-(tert-Butyl)-14-(4-(4-((5-(4-(methylsulfonyl)phenyl)-[1,2,4]triazolo[1,5-a]pyridin-2-yl)amino)phenyl)piperazin-1-yl)-4,14-dioxo-6,9,12-trioxa-3-azatetradecanoyl)-4-hydroxy-N-(4-(4-methylthiazol-5-yl)benzyl)pyrrolidine-2-carboxamide] |
| > 10000 nM | Cc1ncsc1-c1ccc(CNC(=O)[C@@H]2C[C@@H](O)CN2C(=O)[C@@H](NC(=O)CCOCCOCCOCCC(=O)N2CCN(c3ccc(Nc4nc5cccc(-c6ccc(S(C)(=O)=O)cc6)n5n4)cc3)CC2)C(C)(C)C)cc1 [JA-068, (2S,4R)-1-((S)-2-(tert-Butyl)-16-(4-(4-((5-(4-(methylsulfonyl)phenyl)-[1,2,4]triazolo[1,5-a]pyridin-2-yl)amino)phenyl)piperazin-1-yl)-4,16-dioxo-7,10,13-trioxa-3-azahexadecanoyl)-4-hydroxy-N-(4-(4-methylthiazol-5-yl)benzyl)pyrrolidine-2-carboxamide] |
| 2750 nM | Cc1ncsc1-c1ccc(CNC(=O)[C@@H]2C[C@@H](O)CN2C(=O)[C@@H](NC(=O)CCOCCOCCC(=O)N2CCN(c3ccc(Nc4nc5cccc(-c6ccc(S(C)(=O)=O)cc6)n5n4)cc3)CC2)C(C)(C)C)cc1 [JA-070, (2S,4R)-1-((S)-3,3-Dimethyl-2-(3-(2-(3-(4-(4-((5-(4-(methylsulfonyl)phenyl)-[1,2,4]triazolo[1,5-a]pyridin-2-yl)amino)phenyl)piperazin-1-yl)-3-oxopropoxy)ethoxy)propanamido)butanoyl)-4-hydroxy-N-(4-(4-methylthiazol-5-yl)benzyl)pyrrolidine-2-carboxamide] |
| 960 nM | Cc1ncsc1-c1ccc(CNC(=O)[C@@H]2C[C@@H](O)CN2C(=O)[C@@H](NC(=O)CCOCCOCCOCCOCCOCCC(=O)N2CCN(c3ccc(Nc4nc5cccc(-c6ccc(S(C)(=O)=O)cc6)n5n4)cc3)CC2)C(C)(C)C)cc1 [JA-071, (2S,4R)-1-((S)-2-(tert-Butyl)-22-(4-(4-((5-(4-(methylsulfonyl)phenyl)-[1,2,4]triazolo[1,5-a]pyridin-2-yl)amino)phenyl)piperazin-1-yl)-4,22-dioxo-7,10,13,16,19-pentaoxa-3-azadocosanoyl)-4-hydroxy-N-(4-(4-methylthiazol-5-yl)benzyl)pyrrolidine-2-carboxamide] |
| 2430 nM | CS(=O)(=O)c1ccc(-c2cccc3nc(Nc4ccc(N5CCN(C(=O)CCOCCOCCNc6cccc7c6C(=O)N(C6CCC(=O)NC6=O)C7=O)CC5)cc4)nn23)cc1 (centres unmarked) [JA-075, 2-(2,6-Dioxopiperidin-3-yl)-4-((2-(2-(3-(4-(4-((5-(4-(methylsulfonyl)phenyl)-[1,2,4]triazolo[1,5-a]pyridin-2-yl)amino)phenyl)piperazin-1-yl)-3-oxopropoxy)ethoxy)ethyl)amino)isoindoline-1,3-dione] |
| 406 nM | CS(=O)(=O)c1ccc(-c2cccc3nc(Nc4ccc(N5CCN(C(=O)CCOCCOCCOCCOCCOCCNc6cccc7c6C(=O)N(C6CCC(=O)NC6=O)C7=O)CC5)cc4)nn23)cc1 (centres unmarked) [JA-077, 2-(2,6-Dioxo-piperidin-3-yl)-4-(2-{2-[2-(2-{2-[3-(4-{4-[5-(4-methanesulfonyl-phenyl)-[1,2,4]triazolo[1,5-a]pyridin-2-ylamino]-phenyl}-piperazin-1-yl)-3-oxo-propoxy]-ethoxy}-ethoxy)-ethoxy]-ethoxy}-ethylamino)-isoindole-1,3-dione] |
| > 10000 nM | CS(=O)(=O)c1ccc(-c2cccc3nc(Nc4ccc(N5CCN(C(=O)CCCCCCNc6cccc7c6C(=O)N(C6CCC(=O)NC6=O)C7=O)CC5)cc4)nn23)cc1 (centres unmarked) [JA-078, 2-(2,6-Dioxo-piperidin-3-yl)-4-[7-(4-{4-[5-(4-methanesulfonyl-phenyl)-[1,2,4]triazolo[1,5-a]pyridin-2-ylamino]-phenyl}-piperazin-1-yl)-7-oxo-heptylamino]-isoindole-1,3-dione] |
| 479 nM | CS(=O)(=O)c1ccc(-c2cccc3nc(Nc4ccc(N5CCN(C(=O)CCOCCNc6cccc7c6C(=O)N(C6CCC(=O)NC6=O)C7=O)CC5)cc4)nn23)cc1 (centres unmarked) [JA-079, 2-(2,6-Dioxo-piperidin-3-yl)-4-{2-[3-(4-{4-[5-(4-methanesulfonyl-phenyl)-[1,2,4]triazolo[1,5-a]pyridin-2-ylamino]-phenyl}-piperazin-1-yl)-3-oxo-propoxy]-ethylamino}-isoindole-1,3-dione] |
| 573 nM | CS(=O)(=O)c1ccc(-c2cccc3nc(Nc4ccc(N5CCN(C(=O)CCOCCOCCOCCOCCNc6cccc7c6C(=O)N(C6CCC(=O)NC6=O)C7=O)CC5)cc4)nn23)cc1 (centres unmarked) [JA-080, 2-(2,6-Dioxo-piperidin-3-yl)-4-{2-[2-(2-{2-[3-(4-{4-[5-(4-methanesulfonyl-phenyl)-[1,2,4]triazolo[1,5-a]pyridin-2-ylamino]-phenyl}-piperazin-1-yl)-3-oxo-propoxy]-ethoxy}-ethoxy)-ethoxy]-ethylamino}-isoindole-1,3-dione] |
